Results reported in ChEMBL document CHEMBL5728630, “Aryl, heteroaryl, and heterocyclic pharmaceutical compounds for treatment of medical disorders” (2021).

Molecular target: Complement factor D (Homo sapiens, UniProt P00746)
Experiment: Factor D Assay: Human Factor D (purified from human serum, Complement Technology, Inc.) at 80 nM final concentration is incubated with test compound at various concentrations for 5 min at room temperature in 50 mM Tris, 1M NaCl, pH 7.5. A synthetic substrate Z-L-Lys-SBz and DTNB (Ellman's reagent) are added to final concentrations of 100 μM each. Absorbance at 405 nm (A405) is recorded at 30 second intervals for 30 min using a microplate spectrophotometer. IC50 values are calculated by nonlinear regression of complement Factor D reaction rates as a function of test compound concentration.

Sequence of Complement factor D (P00746 whole entry): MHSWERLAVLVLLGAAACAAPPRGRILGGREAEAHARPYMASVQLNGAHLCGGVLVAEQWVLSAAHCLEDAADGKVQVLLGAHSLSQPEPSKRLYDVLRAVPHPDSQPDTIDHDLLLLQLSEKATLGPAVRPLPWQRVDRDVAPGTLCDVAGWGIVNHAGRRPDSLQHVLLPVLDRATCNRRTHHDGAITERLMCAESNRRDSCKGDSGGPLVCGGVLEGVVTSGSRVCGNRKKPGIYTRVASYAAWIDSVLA

Q: How did the IC50 turn out when `CC(=O)c1nn(CC(=O)N2[C@H](C(=O)NCc3ccccc3C)C[C@@]3(C)C[C@@H]23)c2c(C)cc(-c3cnc(C)nc3)cc12` was run?
A: < 1000 nM

Q: Which IC50 does the source give for `CC(=O)c1nn(CC(=O)N2[C@H](C(=O)NCc3ccncc3)C[C@@]3(C)C[C@@H]23)c2c(C)cc(-c3cnc(C)nc3)cc12` here?
A: < 1000 nM

Q: With `CC(=O)c1nn(CC(=O)N2[C@H](C(=O)NCCC3CCCCC3)C[C@@]3(C)C[C@@H]23)c2c(C)cc(-c3cnc(C)nc3)cc12` as the molecule, how does the IC50 read?
A: < 1000 nM

Q: With `CC(=O)c1nn(CC(=O)N2[C@H](C(=O)NCc3cccc(C)c3)C[C@@]3(C)C[C@@H]23)c2c(C)cc(-c3cnc(C)nc3)cc12` as the molecule, how does the IC50 read?
A: < 1000 nM

Q: Which IC50 does the source give for `CC(=O)c1nn(CC(=O)N2[C@H](C(=O)NCc3ccc(C)cc3)C[C@@]3(C)C[C@@H]23)c2c(C)cc(-c3cnc(C)nc3)cc12` here?
A: < 1000 nM

Q: For `CC(=O)c1nn(CC(=O)N2[C@H](C(=O)Nc3cc(C(=O)O)cc(Br)n3)C[C@@]3(C)C[C@@H]23)c2c(CN)cc(-c3cnc(C)nc3)cc12`, which IC50 is on record?
A: < 1000 nM

Q: Which IC50 does the source give for `CC(=O)c1nn(CC(=O)N2[C@H](C(=O)NCc3cccnn3)C[C@@]3(C)C[C@@H]23)c2c(C)cc(-c3cnc(C)nc3)cc12` here?
A: < 1000 nM

Q: How did the IC50 turn out when `CC(=O)c1nn(CC(=O)N2[C@H](C(=O)NCc3ccccn3)C[C@@]3(C)C[C@@H]23)c2c(C)cc(-c3cnc(C)nc3)cc12` was run?
A: < 1000 nM

Q: How did the IC50 turn out when `CC(=O)c1nn(CC(=O)N2[C@H](C(=O)NCCN3CCCCC3)C[C@@]3(C)C[C@@H]23)c2c(C)cc(-c3cnc(C)nc3)cc12` was run?
A: > 10000 nM

Q: Which IC50 does the source give for `CC(=O)c1nn(CC(=O)N2[C@H](C(=O)NCc3cccnc3)C[C@@]3(C)C[C@@H]23)c2c(C)cc(-c3cnc(C)nc3)cc12` here?
A: < 1000 nM

Q: Which IC50 does the source give for `CC(=O)c1nn(CC(=O)N2[C@H](C(=O)NCc3cncnc3)C[C@@]3(C)C[C@@H]23)c2c(C)cc(-c3cnc(C)nc3)cc12` here?
A: < 1000 nM

Q: Which IC50 does the source give for `CC(=O)c1nn(CC(=O)N2[C@H](C(=O)NCc3ncccn3)C[C@@]3(C)C[C@@H]23)c2c(C)cc(-c3cnc(C)nc3)cc12` here?
A: < 1000 nM

Q: With `CC(=O)c1nn(CC(=O)N2[C@H](C(=O)Nc3nc(Br)ccc3C)C[C@@]3(C)C[C@@H]23)c2ccc(-c3cnc(C)nc3)cc12` [VEMIRCOPAN] as the molecule, how does the IC50 read?
A: > 10000 nM
